From article PMC11378298 (ACS Chemical Neuroscience, 2024) come the findings set out here.

One data set has as its system BV-2 cell line. The experiment in a line: IL-6 release in LPS-treated BV-2 cells (LANCE Ultra TR-FRET). It counts as cell-based, mouse. Particulars: compound 10 μM; LPS 100 ng/mL. The protocol: Cell viability was determined by Presto Blue assay after 24 h. (B) Effect of compounds 11, 34, and 36 (0.1, 1, 10 μM) on NO-release (%) in LPS-treated (100 ng/mL) BV-2 cell line. NO-release was measured using a fluorometric assay with 2,3-diaminonaphthalene (DAN). (C, D) Effects of compounds 11 and 36 (0.1, 1, 10 μM) on IL-6 and TNF-α release in LPS-treated (100 ng/mL) BV-2 cell line. The IL-6 and TNF-α levels were measured using LANCE Ultra TR-FRET Detection Kit (PerkinElmer). Statistical analysis was performed using GraphPad Prism 9.0.0. All values are expressed as mean with SD. Differences among groups were evaluated by one-way ANOVA followed by posthoc analysis (Dunnett’s multiple comparison tests) vs. control group (LPS on BV-2 cells and okadaic acid on HT-22 cells) and were considered statistically significant if p < 0.05 (*p < 0.05, **p < 0.01, ***p < 0.001, and ****p < 0.0001). […]
The IL-6 and TNF-α levels in the culture supernatants were measured using LANCE Ultra TR-FRET Detection Kit (PerkinElmer), according to manufacturer protocol. […] After 1 h of incubation of IL-6 and 3h for incubation of TNF-α in the dark, at 22 °C, the plates were read with an EnVision plate reader (PerkinElmer) with the excitation wavelength at 320 nm, the donor emission at 615 nm, and the acceptor emission at 660 nm. […]
Background: In TR-FRET formats the signal depends on donor and acceptor labels being close together.

The nature of data set [1]: Cytotoxicity in HT-22 cells (PrestoBlue). Particulars: mouse, HT-22 hippocampal neuronal cells. The protocol: The compounds were tested at 5 concentrations (0.1, 1, 10, 50, and 100 μM).
Mouse Hippocampal Neuronal Cell Line (HT-22) was a generous gift from Dr Bartosz Pomierny of the Department of Biochemical Toxicology, Jagiellonian University Medical College, Krakow, Poland. Cells were cultured in Dulbecco’s modified Eagle’s Medium—high glucose (DMEM, Glutamax Thermo Fisher) supplemented with 10% heat-inactivated fetal bovine serum (Thermo Fisher), 100 IU/mL penicillin (Merck) and 100 μg/mL streptomycin (Merck). Cells were cultured in flasks (area 175 cm^2, Nunc), and incubated at 37 °C, 5% CO2. For the measurement of cell viability and neuroprotective effect against okadaic acid cells were placed in a 96-well culture plate (2 × 10^4 cells per well, Falcon). Before the tests, cells were grown for 24 h in the incubator (37 °C, 5% CO2).
Cell viability was evaluated using the PrestoBlue reagent (ThermoFisher), according to the manufacturer’s procedures.[87] Following 24 h of incubation with the tested molecule, PrestoBlue reagent was added to a microplate well in an amount equal to one-tenth of the remaining medium volume. The resulting mixture was incubated for 15 min at 37 °C, and the fluorescence intensity (EX 530 nm; EM 580 nm) was measured in the plate reader POLARstar Omega, (BMG Labtech).

For the next data set, the target named is T1, MAPK2 (Homo sapiens, UniProt P28482).
T1 construct: purchased Eurofins (KinaseProfiler service)
T1 sequence (P28482 whole entry): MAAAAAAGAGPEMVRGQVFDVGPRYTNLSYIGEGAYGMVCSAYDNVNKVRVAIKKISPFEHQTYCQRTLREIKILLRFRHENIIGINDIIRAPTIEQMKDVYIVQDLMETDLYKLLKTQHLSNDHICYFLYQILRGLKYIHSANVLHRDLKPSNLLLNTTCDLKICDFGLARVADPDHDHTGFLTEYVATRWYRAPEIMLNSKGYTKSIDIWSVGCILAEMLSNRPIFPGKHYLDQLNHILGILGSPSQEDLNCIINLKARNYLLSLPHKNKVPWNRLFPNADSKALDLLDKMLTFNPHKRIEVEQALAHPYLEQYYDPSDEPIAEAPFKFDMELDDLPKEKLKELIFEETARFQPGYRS
Description: Kinase selectivity, radiometric [Km ATP] KinaseProfiler. It counts as biochemical. As to the method: (§1) We selected those kinases with the greatest potential for interaction based on structural homology, as indicated by the ChemPartner panel.
(§2) Figure 7 Kinase selectivity for compound 36. Data are presented as percent of kinases’ activity in the presence of 1 μM of compound 36. Kinases’ panel (CMGC group, human enzymes): CDK1/cyclinB, CDK2/cyclinA, CDK4/cyclinD3, CDK6/cyclinD3, CDK7/cyclinH/MAT1, CDK9/cyclinT1, DYRK1A, DYRK1B, GSK-3α, GSK-3β, JNK2α2, JNK3, MAPK1, MAPK2, SAPK2a(T106M), SAPK2b, SAPK3.
(§3) Selectivity studies were performed at Eurofins in Kinase Enzymatic Radiometric [Km ATP]
(§4) Kinase Profiler Lead Hunter Assay. The percentage of enzymatic activity was measured at the
(§5) concentration of 1 µM of compound 36 in duplicate for 17 selected kinases.
(§6) Table S12. Inhibitory activity of compound 36 against selected kinases.
(§7) *Where n = 2, the value reported here is actually range / √ 2.

For the next data set, the target named is T2, CDK1/cyclinB (Homo sapiens, UniProt P06493).
T2 construct: purchased Eurofins (KinaseProfiler service)
T2 sequence (P06493 whole entry): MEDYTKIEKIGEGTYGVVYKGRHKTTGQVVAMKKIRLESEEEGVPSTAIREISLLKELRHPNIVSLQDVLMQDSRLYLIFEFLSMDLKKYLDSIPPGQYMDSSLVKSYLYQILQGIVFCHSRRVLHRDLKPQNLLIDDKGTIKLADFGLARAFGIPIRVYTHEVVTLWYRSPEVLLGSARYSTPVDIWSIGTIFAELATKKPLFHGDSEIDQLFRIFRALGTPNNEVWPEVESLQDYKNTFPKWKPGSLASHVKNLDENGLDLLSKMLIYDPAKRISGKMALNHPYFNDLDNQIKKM
T2 sequence (P14635 whole entry partner): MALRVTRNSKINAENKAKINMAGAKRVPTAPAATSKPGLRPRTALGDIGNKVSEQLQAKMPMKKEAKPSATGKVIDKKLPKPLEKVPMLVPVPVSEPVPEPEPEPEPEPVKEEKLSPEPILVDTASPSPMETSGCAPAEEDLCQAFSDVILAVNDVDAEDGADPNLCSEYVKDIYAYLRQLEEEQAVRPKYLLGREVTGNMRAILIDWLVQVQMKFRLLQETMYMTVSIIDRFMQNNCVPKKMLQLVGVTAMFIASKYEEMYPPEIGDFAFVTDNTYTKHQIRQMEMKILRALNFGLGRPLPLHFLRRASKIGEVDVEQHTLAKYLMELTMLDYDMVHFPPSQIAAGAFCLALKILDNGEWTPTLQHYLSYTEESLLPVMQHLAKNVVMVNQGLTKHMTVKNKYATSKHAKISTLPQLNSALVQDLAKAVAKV
Described as above. It counts as biochemical. As to the method: as §1, §2, §3, §4, §5, §6, §7

A further data set deals with T3, DYRK1A (Homo sapiens, UniProt Q13627).
T3 construct: purchased Eurofins (KinaseProfiler service)
The description is as above. It counts as biochemical. Particulars: duplicate. The protocol: as §1, §2, §3, §4, §5, §6, §7

For a further data set, the target named is T4, JNK2α2 (Homo sapiens, UniProt P45984).
T4 construct: purchased Eurofins (KinaseProfiler service)
T4 sequence (P45984 whole entry): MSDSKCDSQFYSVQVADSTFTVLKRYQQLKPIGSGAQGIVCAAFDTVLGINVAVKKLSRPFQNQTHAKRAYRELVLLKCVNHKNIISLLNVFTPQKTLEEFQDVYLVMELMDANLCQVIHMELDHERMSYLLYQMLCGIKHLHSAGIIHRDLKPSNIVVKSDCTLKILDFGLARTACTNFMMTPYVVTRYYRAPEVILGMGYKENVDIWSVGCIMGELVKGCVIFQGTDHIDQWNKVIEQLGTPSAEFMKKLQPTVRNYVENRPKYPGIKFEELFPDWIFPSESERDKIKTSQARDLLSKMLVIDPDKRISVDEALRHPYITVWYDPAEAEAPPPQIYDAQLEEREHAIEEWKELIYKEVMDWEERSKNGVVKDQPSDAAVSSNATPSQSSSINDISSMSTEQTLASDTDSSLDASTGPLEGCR
The data set is described as above. It counts as biochemical. As to the method:
as §1, §2, §3, §4, §5, §6, §7

Another data set has as its target T5, SAPK3 (Homo sapiens, UniProt P53778).
T5 construct: purchased Eurofins (KinaseProfiler service)
The description is as above. It counts as biochemical. As to the method: as §1, §2, §3, §4, §5, §6, §7

In another data set the target is T6, JNK3 (Homo sapiens, UniProt P53779).
T6 construct: purchased Eurofins (KinaseProfiler service)
T6 sequence (P53779 whole entry): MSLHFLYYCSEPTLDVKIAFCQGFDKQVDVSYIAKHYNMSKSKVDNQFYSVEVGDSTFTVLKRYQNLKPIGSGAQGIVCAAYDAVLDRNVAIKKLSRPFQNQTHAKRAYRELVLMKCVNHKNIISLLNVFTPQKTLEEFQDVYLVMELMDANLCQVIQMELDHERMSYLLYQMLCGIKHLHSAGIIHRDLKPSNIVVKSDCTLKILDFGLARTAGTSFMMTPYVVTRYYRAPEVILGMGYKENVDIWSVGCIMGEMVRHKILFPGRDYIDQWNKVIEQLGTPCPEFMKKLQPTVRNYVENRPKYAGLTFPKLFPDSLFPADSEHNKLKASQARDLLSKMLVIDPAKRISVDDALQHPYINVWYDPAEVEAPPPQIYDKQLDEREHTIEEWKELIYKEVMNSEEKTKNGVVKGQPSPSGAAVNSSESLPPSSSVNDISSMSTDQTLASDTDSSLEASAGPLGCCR
Described as above. It counts as biochemical. As to the method:
as §1, §2, §3, §4, §5, §6, §7

Another data set concerns the target T7, CDK9/cyclin T1 (Homo sapiens, UniProt P50750).
T7 construct: purchased Eurofins (KinaseProfiler service)
Described as above. It counts as biochemical. As to the method: as §1, §2, §3, §4, §5, §6, §7

The target in another data set is T8, DYRK1B (Homo sapiens, UniProt Q9Y463).
T8 construct: purchased Eurofins (KinaseProfiler service)
T8 sequence (Q9Y463 whole entry): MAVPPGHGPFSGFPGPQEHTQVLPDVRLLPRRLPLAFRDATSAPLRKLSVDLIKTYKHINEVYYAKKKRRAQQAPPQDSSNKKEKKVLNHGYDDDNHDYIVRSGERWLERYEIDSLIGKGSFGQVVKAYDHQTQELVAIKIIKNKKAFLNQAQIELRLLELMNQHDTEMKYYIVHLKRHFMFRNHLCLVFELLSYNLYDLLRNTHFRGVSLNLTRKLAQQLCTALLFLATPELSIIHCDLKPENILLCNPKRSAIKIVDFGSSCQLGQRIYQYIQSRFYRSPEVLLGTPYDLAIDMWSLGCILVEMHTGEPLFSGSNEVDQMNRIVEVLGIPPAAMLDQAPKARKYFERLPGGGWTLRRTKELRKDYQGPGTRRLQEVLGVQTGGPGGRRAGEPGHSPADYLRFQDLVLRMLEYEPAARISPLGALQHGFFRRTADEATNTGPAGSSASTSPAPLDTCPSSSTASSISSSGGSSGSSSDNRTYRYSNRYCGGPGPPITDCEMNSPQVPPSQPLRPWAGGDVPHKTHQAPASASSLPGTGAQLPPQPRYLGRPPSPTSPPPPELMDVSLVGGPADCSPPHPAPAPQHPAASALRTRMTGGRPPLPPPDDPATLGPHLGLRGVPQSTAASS
Described as above. It counts as biochemical. Particulars: duplicate. The protocol:
as §1, §2, §3, §4, §5, §6, §7

A further data set addresses T9, CDK2/cyclinA (Homo sapiens, UniProt P24941).
T9 construct: purchased Eurofins (KinaseProfiler service)
Described as above. It counts as biochemical. The protocol: as §1, §2, §3, §4, §5, §6, §7

In a further data set the target is T10, CDK6/cyclinD3 (Homo sapiens, UniProt Q00534).
T10 construct: purchased Eurofins (KinaseProfiler service)
T10 sequence (Q00534 whole entry): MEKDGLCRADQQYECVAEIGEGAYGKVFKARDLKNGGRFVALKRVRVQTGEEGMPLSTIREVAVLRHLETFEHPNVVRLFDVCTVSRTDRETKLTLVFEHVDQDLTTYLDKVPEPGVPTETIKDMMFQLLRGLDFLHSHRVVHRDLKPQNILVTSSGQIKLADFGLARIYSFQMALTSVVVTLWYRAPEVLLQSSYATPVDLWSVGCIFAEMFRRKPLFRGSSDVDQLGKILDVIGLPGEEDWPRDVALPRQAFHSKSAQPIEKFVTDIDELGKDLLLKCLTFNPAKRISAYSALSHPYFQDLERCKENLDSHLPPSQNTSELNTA
T10 sequence (P30281 whole entry partner): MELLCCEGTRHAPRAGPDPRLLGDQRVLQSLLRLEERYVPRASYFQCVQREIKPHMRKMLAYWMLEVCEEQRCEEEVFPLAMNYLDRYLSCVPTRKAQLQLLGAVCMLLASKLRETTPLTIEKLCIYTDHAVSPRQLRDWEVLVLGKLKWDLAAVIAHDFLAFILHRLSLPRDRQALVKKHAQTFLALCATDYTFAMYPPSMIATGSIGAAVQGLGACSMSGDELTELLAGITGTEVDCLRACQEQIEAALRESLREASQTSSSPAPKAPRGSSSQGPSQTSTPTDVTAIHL
The description is as above. It counts as biochemical. The protocol: as §1, §2, §3, §4, §5, §6, §7

What is called IC50 is the midpoint of a concentration-inhibition curve. A higher IC50 goes with lower potency. Broadly, the inhibition is the relative decrease from the control value, in per cent.

Molecules are shown by their SMILES. Some results are limits rather than exact numbers.

T5 sequence (P53778 whole entry): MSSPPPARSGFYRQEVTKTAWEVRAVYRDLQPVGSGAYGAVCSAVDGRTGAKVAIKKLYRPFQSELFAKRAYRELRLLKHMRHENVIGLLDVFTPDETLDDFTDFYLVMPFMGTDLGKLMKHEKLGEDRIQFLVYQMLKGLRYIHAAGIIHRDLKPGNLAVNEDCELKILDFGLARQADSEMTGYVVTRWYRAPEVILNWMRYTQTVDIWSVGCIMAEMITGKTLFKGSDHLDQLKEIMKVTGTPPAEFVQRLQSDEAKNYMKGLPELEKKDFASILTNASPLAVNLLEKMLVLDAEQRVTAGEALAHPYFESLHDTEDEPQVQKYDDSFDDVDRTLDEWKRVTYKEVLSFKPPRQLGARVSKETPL
T7 sequence (P50750 whole entry): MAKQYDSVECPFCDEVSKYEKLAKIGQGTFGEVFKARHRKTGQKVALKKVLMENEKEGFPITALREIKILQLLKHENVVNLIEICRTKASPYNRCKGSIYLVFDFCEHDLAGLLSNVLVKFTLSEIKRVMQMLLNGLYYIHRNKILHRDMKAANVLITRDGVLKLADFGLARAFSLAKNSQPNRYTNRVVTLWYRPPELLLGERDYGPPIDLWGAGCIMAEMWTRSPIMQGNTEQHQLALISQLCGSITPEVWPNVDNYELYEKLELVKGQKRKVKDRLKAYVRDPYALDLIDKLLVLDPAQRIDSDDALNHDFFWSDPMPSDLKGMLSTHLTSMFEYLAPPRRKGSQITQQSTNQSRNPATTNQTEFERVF
T7 sequence (O60563 whole entry partner): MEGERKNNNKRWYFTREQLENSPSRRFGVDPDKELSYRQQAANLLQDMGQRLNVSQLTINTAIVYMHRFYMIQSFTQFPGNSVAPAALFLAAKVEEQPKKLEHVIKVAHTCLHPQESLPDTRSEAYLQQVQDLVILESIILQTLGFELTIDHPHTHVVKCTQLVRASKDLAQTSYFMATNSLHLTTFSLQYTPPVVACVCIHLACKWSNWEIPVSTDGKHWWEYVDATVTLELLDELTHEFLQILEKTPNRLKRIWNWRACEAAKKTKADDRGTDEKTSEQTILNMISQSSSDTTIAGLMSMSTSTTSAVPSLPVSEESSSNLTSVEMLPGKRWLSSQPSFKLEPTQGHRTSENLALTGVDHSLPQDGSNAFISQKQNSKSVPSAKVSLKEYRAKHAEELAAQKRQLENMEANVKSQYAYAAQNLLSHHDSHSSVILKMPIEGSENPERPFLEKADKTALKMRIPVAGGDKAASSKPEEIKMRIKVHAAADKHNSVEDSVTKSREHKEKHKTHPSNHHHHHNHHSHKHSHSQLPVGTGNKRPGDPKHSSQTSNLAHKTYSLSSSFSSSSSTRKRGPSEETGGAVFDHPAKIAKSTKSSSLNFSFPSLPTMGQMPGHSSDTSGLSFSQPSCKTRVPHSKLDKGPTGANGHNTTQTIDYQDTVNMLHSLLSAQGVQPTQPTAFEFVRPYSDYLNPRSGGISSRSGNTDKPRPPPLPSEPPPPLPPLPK

`NC(=O)N1CC=C(c2ccnc(NC(=O)C3CC3)c2)C1` [Compound 11, 3-(2-(Cyclopropanecarboxamido)pyridin-4-yl)-2,5-dihydro-1H-pyrrole-1-carboxamide]: the IL-6 release result with BV-2 cell line is on record as “significantly reducing the release”. The compound also returned a 50% inhibitory concentration (IC50) at 24 h in data set [1] of 45.8 ± 9.7 µM.
Turning to `O=C(Nc1cc(-c2ccc(-c3ncon3)s2)ccn1)C1CC1` [Compound 36, N-(4-(5-(1,2,4-Oxadiazol-3-yl)thiophen-2-yl)pyridin-2-yl)cyclopropanecarboxamide], the IL-6 release result in the data set with BV-2 cell line is listed as “significantly reducing the release”. Besides, the IC50 at 24 h in [1] is > 100 µM. Also, the inhibition at 1 µM against MAPK2 is < 50%; at CDK1/cyclinB, 58%; against JNK2α2, < 50%; on SAPK3 (read-out: inhibition of SAPK3), < 50%; on JNK3 it was < 50%; against CDK9/cyclin T1 it was 84%. The inhibition at 1 µM against CDK2/cyclinA was 63%; on CDK6/cyclinD3, < 50%. The “% of enzyme activity at 1μM of 36 ±SD, MAPK2” value on MAPK2 (duplicate) came out at 98±6%. In addition, the “% of enzyme activity at 1μM of 36 ±SD, CDK1/cyclinB” value on CDK1/cyclinB (duplicate) is listed as 42±4%. Also, the “% of enzyme activity at 1μM of 36 ±SD, DYRK1A” value at DYRK1A stood at 11±1%. For the same compound, on JNK2α2 (duplicate), the “% of enzyme activity at 1μM of 36 ±SD, JNK2α2” value was determined as 100±7%. Also, on SAPK3 (1 μM, duplicate), the “% of enzyme activity at 1μM of 36 ±SD, SAPK3” value came to 50±3%. For the same compound, on JNK3 (duplicate), the “% of enzyme activity at 1μM of 36 ±SD, JNK3” value came to 73±6%. Moreover, on CDK9/cyclin T1 (duplicate), the “% of enzyme activity at 1μM of 36 ±SD, CDK9/cyclin T1” value is reported as 16±2%. The “% of enzyme activity at 1μM of 36 ±SD, DYRK1B” value on DYRK1B is 26±6%. For the same compound, the “% of enzyme activity at 1μM of 36 ±SD, CDK2/cyclinA” value on CDK2/cyclinA (duplicate) is given as 37±1%. For the same compound, the “% of enzyme activity at 1μM of 36 ±SD, CDK6/cyclinD3” value at CDK6/cyclinD3 (duplicate) stood at 90±1%.
